According to PMC6017745 (Molecules : A Journal of Synthetic Chemistry and Natural …, 2018):
Entries after “also recorded” stand apart in the source; their conditions may differ. Where two headings read alike, the source gives them in different places. Each block holds one compound with its values, some of them ahead of it.

Assays:
MAO-A = assay: Post-mortem cerebral MAO-A activity (radioisotopic assay); assay type: in vivo, rat; conditions: cerebral cortex, rats s.c. 3 mg/kg/daily for five days, means ± SEM
Protocol: (§1) Post-mortem brain analyses included estimation of the amine neurotransmitters concentrations as well as the activities of the degradative enzymes HNMT and MAO-A and MAO-B. The rats were sacrificed 24 h after the last injection. The brains were collected, separated into hypothalamus and the cerebral cortex according to the Glowinski and Iversen method, immediately frozen in liquid nitrogen and kept at −80 °C until assayed. […] For MAO-A serotonin (5-[2-^14C]-hydroxytryptamine binoxalate) and for MAO-B β-[ethyl-1-^14C]-phenylethylamine hydrochloride were used as substrates and respectively, clorgyline (MAO-A) and deprenyl (MAO-B) (final conc. 10^−9 M) as the enzymes inhibitors. Protein was measured by Lowry method.

MAO-B = assay: Post-mortem cerebral MAO-B activity (radioisotopic assay); assay type: in vivo, rat; conditions: cerebral cortex, rats s.c. 3 mg/kg/daily for five days, means ± SEM
Protocol: as §1

Lewis rats = assay: Food consumption during subchronic administration to rats (metabolic cages); assay type: in vivo, rat; conditions: s.c. 3 mg/kg/daily for five days
[1] = system: histamine concentration in rat brain; assay: Post-mortem cerebral histamine concentration (ELISA); assay type: in vivo; conditions: rats, s.c. 3 mg/kg/daily for five days
HNMT = assay: Post-mortem cerebral HNMT activity (radioisotopic assay); assay type: in vivo, rat; conditions: for HNMT activity CTX: cerebral cortex; for HNMT activity CTX / HNMT activity HTH: rats s.c. 3 mg/kg/daily for five days, means ± SEM; for HNMT activity HTH: hypothalamus
[2] = system: dopamine, noradrenaline and serotonin concentration in rat brain; assay: Post-mortem cerebral concentration of biogenic amines DA, NA, 5-HT (RIA); assay type: in vivo; conditions: rats
H1 receptor [3] = biological target: T1, H1 receptor (Cavia porcellus, UniProt P31389); parameters: The excised ileum was placed in phosphate buffer at room temperature; from tissue; host or cells: guinea pig ileum; conditions: guinea pig ileum, NA = inactive, cited from earlier work
H1 receptor [4] = biological target: T1, H1 receptor; assay: H1 antagonistic effects in vitro using the guinea pig ileum
H3 receptor = H3 receptor (Cavia porcellus, UniProt Q9JI35); assay: H3 antagonistic activity against H3 agonist-induced inhibition of electrically evoked contraction of guinea-pig jejunum; conditions: vs (R)-α-methylhistamine, Schild analysis; for pA2 (SEM) H3: guinea pig jejunum; for Kb: pA2 (SEM) H3, guinea pig jejunum
[5] = biological target: T2, rat histamine H3 receptor (rH3R) (Rattus norvegicus, UniProt Q9QYN8); assay: biochemical
[6] = biological target: T2, rat histamine H3 receptor (rH3R); conditions: read-out: KD saturation binding at rH3R; HEK-293T membranes, two hours at 25 °C
[7] = biological target: human histamine H3 receptor (hH3R) (Homo sapiens, UniProt Q9Y5N1); conditions: read-out: KD saturation binding at hH3R
human histamine H3 receptor (hH3R), sequence (Q9Y5N1 whole entry): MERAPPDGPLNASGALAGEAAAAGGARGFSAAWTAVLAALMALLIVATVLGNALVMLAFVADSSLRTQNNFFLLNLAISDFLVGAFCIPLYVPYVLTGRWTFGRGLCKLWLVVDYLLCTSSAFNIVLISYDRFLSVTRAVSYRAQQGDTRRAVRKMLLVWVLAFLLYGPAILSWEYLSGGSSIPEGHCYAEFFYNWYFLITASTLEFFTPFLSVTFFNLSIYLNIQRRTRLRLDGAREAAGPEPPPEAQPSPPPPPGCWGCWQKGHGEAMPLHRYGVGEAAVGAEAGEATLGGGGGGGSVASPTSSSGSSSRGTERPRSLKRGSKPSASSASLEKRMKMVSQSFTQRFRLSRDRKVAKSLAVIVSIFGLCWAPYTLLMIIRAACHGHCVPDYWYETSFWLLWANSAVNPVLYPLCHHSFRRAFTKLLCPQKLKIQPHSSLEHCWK

T1 sequence (P31389 whole entry): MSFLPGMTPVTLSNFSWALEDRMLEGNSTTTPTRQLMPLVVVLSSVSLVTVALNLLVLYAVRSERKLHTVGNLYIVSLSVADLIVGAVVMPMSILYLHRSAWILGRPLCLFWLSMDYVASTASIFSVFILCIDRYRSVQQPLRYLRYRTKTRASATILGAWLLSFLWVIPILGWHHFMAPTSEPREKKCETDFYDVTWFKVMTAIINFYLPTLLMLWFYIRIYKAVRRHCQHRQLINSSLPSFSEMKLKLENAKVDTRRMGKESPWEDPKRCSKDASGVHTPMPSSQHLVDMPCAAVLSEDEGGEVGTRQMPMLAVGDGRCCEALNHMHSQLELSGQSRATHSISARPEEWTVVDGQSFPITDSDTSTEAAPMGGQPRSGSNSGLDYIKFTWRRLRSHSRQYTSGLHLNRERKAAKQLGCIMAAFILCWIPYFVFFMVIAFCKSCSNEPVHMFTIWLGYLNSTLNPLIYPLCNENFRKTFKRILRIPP
H3 receptor, sequence (Q9JI35 whole entry): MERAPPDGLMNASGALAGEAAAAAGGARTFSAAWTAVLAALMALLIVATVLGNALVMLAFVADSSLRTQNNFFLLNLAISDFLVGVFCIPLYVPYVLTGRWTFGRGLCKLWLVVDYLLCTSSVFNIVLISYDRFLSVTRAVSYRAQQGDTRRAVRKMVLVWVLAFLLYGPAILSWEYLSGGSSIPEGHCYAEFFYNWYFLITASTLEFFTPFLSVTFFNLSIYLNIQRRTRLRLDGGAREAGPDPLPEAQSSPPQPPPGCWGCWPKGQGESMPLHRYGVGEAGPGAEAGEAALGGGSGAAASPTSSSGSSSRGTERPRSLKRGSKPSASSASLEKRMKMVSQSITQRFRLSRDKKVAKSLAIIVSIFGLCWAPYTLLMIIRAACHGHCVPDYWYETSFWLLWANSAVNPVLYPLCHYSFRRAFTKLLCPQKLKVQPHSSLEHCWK
T2 sequence (Q9QYN8 whole entry): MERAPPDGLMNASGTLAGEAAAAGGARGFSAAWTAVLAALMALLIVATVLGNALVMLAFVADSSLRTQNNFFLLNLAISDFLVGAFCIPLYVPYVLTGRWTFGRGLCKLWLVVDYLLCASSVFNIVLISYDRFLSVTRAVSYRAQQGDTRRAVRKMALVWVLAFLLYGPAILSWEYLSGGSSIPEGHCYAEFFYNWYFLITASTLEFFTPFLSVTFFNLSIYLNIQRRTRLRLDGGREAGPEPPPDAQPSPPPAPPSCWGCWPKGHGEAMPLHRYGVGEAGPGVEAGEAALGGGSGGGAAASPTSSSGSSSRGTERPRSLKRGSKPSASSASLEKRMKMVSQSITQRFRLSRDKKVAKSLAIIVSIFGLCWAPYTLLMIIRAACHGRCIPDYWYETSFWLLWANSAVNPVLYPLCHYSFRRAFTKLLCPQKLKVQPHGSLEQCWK

SMILES: O=C(c1ccc(OCCCc2cnc[nH]2)cc1)C1CC1 [Ciproxifan, ciproxifan, reference compound]
- MAO-A activity CTX (MAO-A): 1654 ± 31.42 pmol/min/mg protein
- MAO-B activity CTX (MAO-B): 1049 ± 56.16 pmol/min/mg protein
- effect on food intake (Lewis rats): caused a significant decrease in consumption
- histamine concentration in the hypothalamus ([1]; 3 mg/kg): tended to be higher than in the untreated controls; also recorded: significantly higher than in ADS-531 injected rats
- HNMT activity CTX (HNMT): 46.90 ± 3.59 pmol/min/mg protein
- HNMT activity HTH (HNMT): 44.68 ± 5.50 pmol/min/mg protein

SMILES: CCCN1CCN(c2ncc(CCN(C)CCCc3ccccc3)s2)CC1 [Compound 2c, N-methyl-N-3-phenylalkyl-2-[2-(4-n-propylpiperazin-1-yl)-1,3-thiazol-5-yl]ethan-1-amine]
- brain penetration ([2]; s.c. 3 mg/kg, 5 days): penetrated the brain
- cerebral concentrations of dopamine, noradrenaline and serotonin ([2]; s.c. 3 mg/kg/daily for five days, listed as ADS-531, 3 mg/kg): affected dopamine, noradrenaline and serotonin concentration; also recorded: caused alterations in the concentrations of dopamine, noradrenaline, and serotonin; also recorded: increase of 5HT and NA level throughout the brain with the exception of the hypothalamus
- MAO-A activity CTX (MAO-A): 1625 ± 49.99 pmol/min/mg protein
- MAO-B activity CTX (MAO-B): 1044 ± 38.91 pmol/min/mg protein
- effect on food intake (Lewis rats; listed as ADS-531, 3 mg/kg): did not affect histamine concentration nor feeding behavior; also recorded: did not influence the food intake
- cerebral histamine concentration ([1]; listed as ADS-531, 3 mg/kg): did not affect histamine concentration; also recorded: No significant changes
- pA2 (SEM) H1 (H1 receptor [3]): did not possess any activity at H1
- pA2 (SEM) H1 (H1 receptor [3]; listed as ADS-531): did not exhibit any H1-antagonistic activity; also recorded: devoid of the antagonistic activity at the H1 receptor
- HNMT activity CTX (HNMT): 48.19 ± 0.47 pmol/min/mg protein
- HNMT activity HTH (HNMT): 37.58 ± 2.42 pmol/min/mg protein
- effect on enzyme activities related to histamine metabolism in the brain (HNMT, MAO-B pathway) (HNMT; rats, s.c. 3 mg/kg/daily for five days): No significant changes

- Kb (H1 receptor [4]): 3160 nM
- pA2 (SEM) H3 (H3 receptor): 8.38
- Kb (H3 receptor): 4.17 nM
SMILES: CCCN1CCN(c2ncc(CCCN(C)Cc3ccccc3)s2)CC1 [Compound 3a, N-Benzyl-N-methyl-3-[2-(4-n-piperazin-1-yl)-1,3-thiazol-5-yl]propan-1-amine]

- pA2 (SEM) H3 (H3 receptor): 7.81
- Kb (H3 receptor): 15.5 nM
SMILES: CCCN1CCN(c2ncc(CCCN(C)CCc3ccccc3)s2)CC1 [Compound 3b, N-Methyl-N-(2-phenylethyl)-3-[2-(4-n-propylpiperazin-1-yl)-1,3-thiazol-5-yl]propan-1-amine]

- pA2 (SEM) H3 (H3 receptor): 7.46
- Kb (H3 receptor): 34.7 nM
SMILES: CCCN1CCN(c2ncc(CCCN(C)CCCc3ccccc3)s2)CC1 [Compound 3c, N-Methyl-N-(3-phenylpropyl)-3-[2-(4-n-propylpropylpiperazin-1-yl)-1,3-thiazol-5-yl]-propan-1-amine]

- Kb (H1 receptor [4]): 562 nM
- pA2 (SEM) H1 (H1 receptor [4]; guinea pig ileum, vs histamine): 6.25
- Kb (H3 receptor): 11.2 nM
SMILES: CCCN1CCN(c2ncc(CCCCN(C)Cc3ccccc3)s2)CC1 [Compound 3d, N-Benzyl-N-methyl-4-[2-(4-n-propylpiperazin-1-yl)-1,3-thiazol-5-yl]butan-1-amine]

- Kb (H3 receptor): 10.7 nM
SMILES: CCCN1CCN(c2ncc(CCCCN(C)CCc3ccccc3)s2)CC1 [Compound 3e, N-Methyl-N-(2-phenylethyl)-4-[2-(4-n-propylpiperazin-1-yl)-1,3-thiazol-5-yl]butan-1-amine]

- pA2 (SEM) H3 (H3 receptor): 7.91
- Kb (H3 receptor): 12.3 nM
SMILES: CCCN1CCN(c2ncc(CCCCN(C)CCCc3ccccc3)s2)CC1 [Compound 3f, N-Methyl-N-(3-phenylpropyl)-4-[2-(4-n-propylpiperazin-1-yl)-1,3-thiazol-5-yl]butan-1-amine]

SMILES: S=C(NC1CCCCC1)N1CCC(c2cnc[nH]2)CC1 [Thioperamide, thioperamide, reference compound]
- Kb (H3 receptor): 3.39 nM
- Ki [5]: 12.6 nM

SMILES: CNCCc1cnc[nH]1 [[^3H]-N^α-MH, [^3H]-N^α-methylhistamine]
- Kd [6]: 2.72 ± 0.34 nM
- Kd [7]: 0.9 ± 0.08 nM
